In patent publication US6417213B2, “Tricyclic compound, their production and use” (Takeda Chemical Industries, Ltd., priority 1996, dated 2002) one finds IC50 data, which are given here for 5 molecules.

Assay [1] has as its system human platelets. Description: Platelet aggregation inhibition assay. The class given is cell-based. Particulars: ADP-induced aggregation, platelet-rich plasma from healthy male adult donors, 37° C. Here is the method: Platelet aggregation inhibition assay
The citrated blood from healthy male adult donors was centrifuged at 1000×g for […] and 20 minutes to harvest platelet-rich plasma (PRP) and platelet-poor plasma (PPP), respectively. Then, PRP was diluted with PPP to a platelet count of 300,000/μL. The degree of platelet aggregation was measured with a platelet aggregation measuring apparatus.
In the assay cuvette, 200 μL of PRP was incubated at 37° C. for 2 minutes. Then, 20 μL of a test drug solution was added and the mixture was further incubated for 2 minutes. Thereafter, aggregation was induced by adding 20 μl of ADP solution. The aggregation in the drug treatment group was compared with the maximum aggregation in the control group to find the inhibition rate. ADP was used in the minimal concentration (2×10^−6 to 3×10^−5 M) inducing maximal aggregation in each assay.
The test compound was added at the final concentrations of 10^−3 to 10^−9 and the IC50 value was calculated from the inhibition rates at the respective concentrations.

Assay [2] addresses T1, human PGI2 receptors (Homo sapiens, UniProt P43119).
T1 construct: expressed in transfected cells; host or cells: CHO cells (membrane fraction)
Description: PGI2 receptor binding assay. Conditions: membrane fraction of CHO cells expressing human PGI2 receptors, [3H]Iloprost 20 nM, pH 6.0, 37° C. 1 hour; read-out: IC50, inhibition of [3H]Iloprost binding to the human PGI2 receptor. Here is the method: PGI2 receptor binding assay
MES-NaOH buffer (pH 6.0) (500 μL) containing the membrane fraction (40 μg) of CHO cells caused to express human PGI2 receptors, [^3H]Iloprost (20 nM), and a test compound solution (50 μL) was incubated at 37° C. for 1 hour and then filtered through a membrane filter to separate the membrane-bound [^3H]Iloprost from the non-membrane-binding [^3H]Iloprost. The radioactivity of the membrane-bound [^3H]Iloprost was determined with a liquid scintillation counter and the binding inhibition rate in each drug treatment group was determined against the specific binding of [^3H]Iloprost to the human PGI2 receptor in the control (solvent) group.
The test compound was added at the final concentrations of 10^−6 to 10^−11 M and the IC50 values were calculated from the inhibition rates at the respective concentrations.

The IC50 is the midpoint of a concentration-inhibition curve.

T1 sequence (P43119 whole entry): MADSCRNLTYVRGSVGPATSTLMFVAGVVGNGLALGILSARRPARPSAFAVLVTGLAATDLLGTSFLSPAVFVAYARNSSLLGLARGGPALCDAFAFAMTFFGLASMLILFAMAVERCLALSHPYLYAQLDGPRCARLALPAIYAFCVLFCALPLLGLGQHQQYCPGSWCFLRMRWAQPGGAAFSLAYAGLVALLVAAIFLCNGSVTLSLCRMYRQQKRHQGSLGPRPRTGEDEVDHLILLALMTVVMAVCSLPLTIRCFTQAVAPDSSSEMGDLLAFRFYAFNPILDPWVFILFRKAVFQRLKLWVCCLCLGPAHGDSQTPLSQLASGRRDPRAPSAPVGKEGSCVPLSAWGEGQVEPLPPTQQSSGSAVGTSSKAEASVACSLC

With `O=C(O)COc1cccc2c1CCc1sc(SCC(c3ccccc3)c3ccccc3)nc1-2` [Example 1, [[2-(2,2-Diphenylethyl)thio-4,5-dihydronaphtho[1,2-d]thiazol-6-yl]oxy]acetic acid], the half-inhibitory concentration (IC50) in assay [1] was determined as 540 nM; in assay [2] it was 24 nM. `O=C(O)COc1cccc2c1OCc1sc(SCC(c3ccccc3)c3ccccc3)nc1-2` [Example 12, [[2-(2,2-Diphenylethyl)thio-4H-[1]benzopyrano[4,3-d]thiazol-6-yl]oxy]acetic acid]: the IC50 in assay [2] is 61 nM.

Regarding `O=C(O)COc1cccc2c1OCc1sc(SCCC(c3ccccc3)c3ccccc3)nc1-2` [Example 11, [[2-(3,3-Diphenylpropyl)thio-4H-[1]benzopyrano[4,3-d]thiazol-6-yl]oxy]acetate acid], the half-inhibitory concentration (IC50) in assay [2] came out at 81 nM.

For `O=C(O)COc1cccc2c1CCc1sc(SC(c3ccccc3)c3ccccc3)nc1-2` [Example 21, [(2-Diphenylmethylthio-4,5-dihydronaphtho[1,2-d]thiazol-6-yl)oxy]acetic acid], the half-maximal inhibitory concentration (IC50) in assay [1] was 210 nM; in assay [2], 2 nM. In the case of `O=C(O)COc1cccc2c1CCc1sc(S(=O)(=O)CC(c3ccccc3)c3ccccc3)nc1-2` [Example 29, [[2-(2,2-Diphenylethyl)sulfonyl-4,5-dihydronaphtho[1,2-d]thiazol-6-yl]oxy]acetic acid], the half-inhibitory concentration (IC50) in assay [2] was 21 nM.
